From patent publication US20230201244A1, “COMPOSITIONS AND METHODS FOR PREVENTING AND/OR TREATING MICROBIAL INFECTIONS” (University of Louisville Research Foundation, Inc., priority 2020, published 2023) come the findings set out here.

The structures appear in SMILES notation.

One assay deals with NF-κB (p65). It counts as in vivo, C57BL/6 mice. Particulars: inhibitor daily for three days at 5 mg/kg/d before intratracheal exosomes.
Assay [1] has as its system lung epithelial cells (EpCAM^+). The experiment in a line: Lung apoptosis in mice given exosomes^Nsp12Nsp13 (TUNEL, Annexin V flow cytometry of EpCAM+ cells). It counts as in vivo, C57BL/6 mice. Particulars: inhibitor pretreatment. For orientation: In flow cytometry, cells or beads pass a laser one at a time.
Assay [2] concerns lung epithelial A549 cells. The experiment in a line: Apoptosis of A549 cells by flow cytometry (Annexin V/7-AAD). It counts as cell-based, human.
The next assay concerns TNFα, IL-1β and IL-6. The experiment in a line: ELISA of inflammatory cytokines in lung or lung macrophages of mice given exosomes^Nsp12Nsp13. Particulars: lung macrophages, TNFα and IL-6 ELISA, i.p. pretreatment, FIG. 10B. The assay is classed as in vivo, C57BL/6 mice. (An ELISA detects its analyte on a solid surface through an enzyme-linked reagent.)

Take `Cc1ccc(S(=O)(=O)/C=C/C#N)cc1` [Bay 11-7821]: in the assay with NF-κB (p65), the “lung macrophage NF-κB activity induced by exosomes^Nsp12Nsp13” value is listed as “inhibited”. For the same molecule, the “induction of lung epithelial cell (EpCAM+) apoptosis” value in assay [1] (Annexin V flow cytometry, FIG. 5E) is “blocked”. Further, the “lung apoptosis induced by exosomes^Nsp12Nsp13 (TUNEL staining)” value in assay [1] (lung sections, FIG. 5D) is on record as “reduced”. Moreover, in assay [2] (A549 cells presented to Nsp12/13, Bay 11-7821, FIG. 5F top panel), the “A549 cell apoptosis on direct exposure” value is given as “little influence”. The “apoptosis of lung epithelial cells induced by supernatant from U937 cells treated with exosomes^Nsp12Nsp13” value in assay [2] (A549 cells, antibodies 10 ng/ml, FIG. 5F middle and bottom panel) is reported as “inhibited”. The “inflammatory cytokines induced by exosomes^Nsp12Nsp13” value in the assay on TNFα, IL-1β and IL-6 is recorded as “attenuation of inflammatory cytokines”.
